Laboratory results reported in PMC9571547, “New Triazinoindole Bearing Benzimidazole/Benzoxazole Hybrids Analogs as Potent Inhibitors of Urease: Synthesis, In Vitro Analysis and Molecular Docking Studies” (Molecules, 2022).
Read-outs that look alike come from different tables or passages of the source.

Molecular target: urease enzyme (Canavalia ensiformis, UniProt P07374)
Assay: biochemical
Assay type: biochemical
Details: for potency relative to standard thiourea drug (fold): urease inhibition, compared to thiourea
Procedure: First, 5 μL of the test compounds were added to the reaction mixtures, which also contained 25 μL of enzyme solution and 55 μL of buffer containing 100 mM urea, then the mixtures were incubated in 96-well plates at 30 °C for 15 min (0.5 mM concentration). For the kinetics analysis, urea concentrations were changed from 2 to 24 mM. Urease activity was determined by measuring ammonia generation using Weatherburn’s indophenol method. In a nutshell, each well received 45 μL of the 0.005% w/v sodium nitroprusside, phenol reagent 1% w/v phenol, and 70 μL of the alkali reagent—0.1% active chloride NaOCl and 0.5% w/v NaOH. Using a microplate reader, rising absorbance at 630 nm was observed after 50 min (Molecular Devices, San Jose, CA, USA). In a final volume of 200 μL, each reaction was carried out three times. Using the software SoftMaxPro, the results (change in absorbance per minute) were processed (Molecular Devices, San Jose, CA, USA). The experiments were run at pH 6.8 throughout. The formula 100-(ODtest well/ODcontrol) 100 was used to calculate the percentage of inhibition.

Chain of urease enzyme (P07374 whole entry, looked up): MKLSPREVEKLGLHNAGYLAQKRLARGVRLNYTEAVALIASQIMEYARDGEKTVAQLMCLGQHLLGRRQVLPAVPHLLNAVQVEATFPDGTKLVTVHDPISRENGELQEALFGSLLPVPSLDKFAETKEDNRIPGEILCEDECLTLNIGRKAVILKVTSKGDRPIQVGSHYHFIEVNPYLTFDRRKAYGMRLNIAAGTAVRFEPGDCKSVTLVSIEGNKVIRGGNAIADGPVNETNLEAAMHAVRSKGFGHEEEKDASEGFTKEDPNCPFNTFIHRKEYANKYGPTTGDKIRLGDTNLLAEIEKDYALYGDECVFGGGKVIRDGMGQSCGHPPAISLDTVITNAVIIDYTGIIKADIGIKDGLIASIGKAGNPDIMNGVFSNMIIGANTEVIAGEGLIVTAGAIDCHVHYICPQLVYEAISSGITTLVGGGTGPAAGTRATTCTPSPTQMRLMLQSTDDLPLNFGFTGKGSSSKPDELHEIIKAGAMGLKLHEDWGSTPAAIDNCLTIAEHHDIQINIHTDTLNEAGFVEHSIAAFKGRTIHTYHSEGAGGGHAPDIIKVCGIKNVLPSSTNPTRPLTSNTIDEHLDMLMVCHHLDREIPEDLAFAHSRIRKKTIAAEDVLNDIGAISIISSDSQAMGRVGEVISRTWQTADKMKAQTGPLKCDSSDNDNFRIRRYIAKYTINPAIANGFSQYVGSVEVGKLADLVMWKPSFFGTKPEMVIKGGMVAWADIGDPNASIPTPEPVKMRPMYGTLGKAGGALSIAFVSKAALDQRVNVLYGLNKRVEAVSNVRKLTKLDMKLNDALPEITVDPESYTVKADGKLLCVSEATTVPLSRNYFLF

| Compound | IC50 | IC50 (in vitro, pH 6.8, 30 °C, 100 mM urea, thiourea as standard, read-out: IC50 ± SEM against the urease enzyme) | potency relative to standard thiourea drug (fold) |
| --- | --- | --- | --- |
| COc1ccc(C(=O)n2c3ccc([N+](=O)[O-])cc3c3nnc(SCc4nc5ccccc5o4)nc32)cc1O [analog 20] | 2.7 ± 0.1 µM |  |  |
| O=C(c1ccc(O)cc1)n1c(CSc2nnc3c4cc([N+](=O)[O-])ccc4n(C(=O)c4ccc(O)cc4)c3n2)nc2ccccc21 [analog 12] | 14.6 ± 0.3 µM |  |  |
| O=C(c1cccc([N+](=O)[O-])c1)n1c2ccc([N+](=O)[O-])cc2c2nnc(SCc3nc4ccccc4o3)nc21 [analog 25] | 21.2 ± 0.4 µM |  |  |
| O=C(c1cccc(Cl)c1)n1c2ccc([N+](=O)[O-])cc2c2nnc(SCc3nc4ccccc4o3)nc21 [analog 17] | 22.2 ± 0.5 µM |  |  |
| O=C(c1cccc(F)c1)n1c2ccc([N+](=O)[O-])cc2c2nnc(SCc3nc4ccccc4o3)nc21 [analog 24] | 1.6 ± 0.01 µM |  |  |
| O=C(c1ccccc1O)n1c2ccc([N+](=O)[O-])cc2c2nnc(SCc3nc4ccccc4o3)nc21 [analog 18] | 3.8 ± 0.1 µM |  |  |
| O=C(c1cc(O)cc(O)c1)n1c(CSc2nnc3c4cc([N+](=O)[O-])ccc4n(C(=O)c4cc(O)cc(O)c4)c3n2)nc2ccccc21 [analog 3] | 2.1 ± 0.1 µM |  |  |
| NC(N)=S [Standard Thiourea, thiourea, reference compound] |  | 21.9 ± 0.4 µM |  |
| O=C(c1cccc(O)c1)n1c(CSc2nnc3c4cc([N+](=O)[O-])ccc4n(C(=O)c4cccc(O)c4)c3n2)nc2ccccc21 [analog 7] | 18.9 ± 0.4 µM |  |  |
| O=C(c1ccccc1F)n1c2ccc([N+](=O)[O-])cc2c2nnc(SCc3nc4ccccc4o3)nc21 [analog 23] | 1.1 ± 0.01 µM |  | ten-fold-enhanced inhibitory potential |
| Cc1cccc(C(=O)n2c3ccc([N+](=O)[O-])cc3c3nnc(SCc4nc5ccccc5o4)nc32)c1 [analog 19] | 34.9 ± 0.7 µM |  |  |
| O=C(c1cc(O)ccc1O)n1c(CSc2nnc3c4cc([N+](=O)[O-])ccc4n(C(=O)c4cc(O)ccc4O)c3n2)nc2ccccc21 [analog 6] | 6.7 ± 0.2 µM |  |  |
| Cc1ccccc1C(=O)n1c2ccc([N+](=O)[O-])cc2c2nnc(SCc3nc4ccccc4o3)nc21 [analog 15] | 36.2 ± 0.7 µM |  |  |
| COc1ccccc1C(=O)n1c(CSc2nnc3c4cc([N+](=O)[O-])ccc4n(C(=O)c4ccccc4OC)c3n2)nc2ccccc21 [analog 4] | 32.2 ± 0.3 µM |  |  |
| O=C(c1ccc(Cl)cc1)n1c2ccc([N+](=O)[O-])cc2c2nnc(SCc3nc4ccccc4o3)nc21 [analog 13] | 9.7 ± 0.2 µM |  |  |
| O=C(c1cccc(O)c1O)n1c2ccc([N+](=O)[O-])cc2c2nnc(SCc3nc4ccccc4o3)nc21 [analog 22] | 1.7 ± 0.1 µM |  | ten-fold-enhanced inhibitory potential |
| O=C(c1ccccc1[N+](=O)[O-])n1c(CSc2nnc3c4cc([N+](=O)[O-])ccc4n(C(=O)c4ccccc4[N+](=O)[O-])c3n2)nc2ccccc21 [analog 10] | 19.3 ± 0.4 µM |  |  |
| O=C(c1cccc([N+](=O)[O-])c1)n1c(CSc2nnc3c4cc([N+](=O)[O-])ccc4n(C(=O)c4cccc([N+](=O)[O-])c4)c3n2)nc2ccccc21 [analog 11] | 26.6 ± 0.5 µM |  |  |
| Cc1ccc(C(=O)n2c3ccc([N+](=O)[O-])cc3c3nnc(SCc4nc5ccccc5o4)nc32)cc1 [analog 16] | 28.2 ± 0.5 µM |  |  |
| O=C(c1ccc(O)cc1O)n1c(CSc2nnc3c4cc([N+](=O)[O-])ccc4n(C(=O)c4ccc(O)cc4O)c3n2)nc2ccccc21 [analog 2] | 1.9 ± 0.1 µM |  |  |
| O=C(c1c(O)cc(O)cc1O)n1c(CSc2nnc3c4cc([N+](=O)[O-])ccc4n(C(=O)c4c(O)cc(O)cc4O)c3n2)nc2ccccc21 [analog 8] | 0.2 ± 0.01 µM |  |  |
| CN(C)c1ccc(C(=O)n2c(CSc3nnc4c5cc([N+](=O)[O-])ccc5n(C(=O)c5ccc(N(C)C)cc5)c4n3)nc3ccccc32)cc1 [analog 9] | 31.1 ± 0.3 µM |  |  |
| COc1ccc(C(=O)n2c3ccc([N+](=O)[O-])cc3c3nnc(SCc4nc5ccccc5o4)nc32)c(OC)c1 [analog 21] | 31.8 ± 0.5 µM |  |  |
| COC(=O)c1ccc(C(=O)n2c3ccc([N+](=O)[O-])cc3c3nnc(SCc4nc5ccccc5o4)nc32)cc1 [analog 14] | 23.9 ± 0.5 µM |  |  |
| O=C(c1ccc(O)c(O)c1)n1c(CSc2nnc3c4cc([N+](=O)[O-])ccc4n(C(=O)c4ccc(O)c(O)c4)c3n2)nc2ccccc21 [analog 5] | 0.9 ± 0.01 µM |  |  |
| O=C(c1ccc([N+](=O)[O-])cc1)n1c(CSc2nnc3c4cc([N+](=O)[O-])ccc4n(C(=O)c4ccc([N+](=O)[O-])cc4)c3n2)nc2ccccc21 [analog 1] | 17.6 ± 0.3 µM |  |  |
